From patent US11598701B1, “Method and system for lysing a liquid sample with augmented oxidizing agents to create a solution with a reduced microbial concentration and precipitate formation” (BIS SCIENCE LLC, priority 2021, dated 2023)
“And” between values parts separate entries of the source, which are not always exact repeats. Identical values can stand only once.

Test system: S. aureus ATCC 6538
Assay: Antimicrobial suspension test of H2O2 with and without photon activation
Assay type: cell-based
Conditions: contact time 5 minutes; for Average CFU/ML: average of replicates; for CFU/ML: single replicate

Row | Compound | % reduction Compared to controls | LOG 10 Reduction compared to controls | Average CFU/ML | CFU/ML | CFU/ML (listed as l ppm H2O2 no photon activation)
1 | OO [.3% H2O2 no photon activation, H2O2] | No reduction | No reduction | 4.05E+06 CFU/ML | 4.10E+06 CFU/ML and 4.00E+06 CFU/ML | 
2 | OO [1 ppm H2O2 no photon activation, H2O2] | No reduction | No reduction | 4.05E+06 CFU/ML | 4.10E+06 CFU/ML | 4.10E+06 CFU/ML
